Two molecules from patent US20080081788A1, “Diagnosis and treatment for immunoglobulin E (IgE) implicated disorders” (priority 2002, published 2008) can be followed below.

Like-named read-outs stand apart in the source and are kept apart here. Ends that are not written are not given here.

The format of series [1] is in vivo, human. The following applies: seven days, compared with expt #1 and #2.
The test system of a further series is IgE. In kind it is in vivo, human. The following applies: for IgE levels in saliva: ELISA titer, Normal 16200, Glucotrol 15 mg/day, LT-10 2 mg/day or both. A general note: ELISA stands for enzyme-linked immunosorbent assay.
For the next series, the system named is NGF. The series is classed as in vivo, human. The following applies: for NGF levels in saliva: ELISA titer, Normal 1200, Glucotrol 15 mg/day, LT-10 2 mg/day or both.
The test system of the next series is Insulin. The series is classed as in vivo, human. On the set-up: Insulin levels in saliva: unit not given here. The settings on record: for Insulin levels in saliva: ELISA titer, Normal 600, Glucotrol 15 mg/day, LT-10 2 mg/day or both.
The subject of the next series is Myoglobin. The series is classed as in vivo, human. The settings on record: for Myoglobin levels in saliva: ELISA titer, Normal 1800, Glucotrol 15 mg/day, LT-10 2 mg/day or both.
The conditions of series [2]: in vivo.

For `Cc1cnc(C(=O)NCCc2ccc(S(=O)(=O)NC(=O)NC3CCCCC3)cc2)cn1` [Glucotrol], the “effect on glucose level, in words” value in series [1] is listed as “did not make appreciable difference”. The “IgE levels in saliva” value with IgE (Day 1) is listed as 145800; with IgE (Day 2), 148600; in the series with IgE (Day 3) it was 145800; with IgE (Day 4), 148600; in the series on IgE (Day 5), 148600; in the series on IgE (Day 6), 145800. In addition, the “IgE levels in saliva” value in the series on IgE (Day 7) is listed as 145800. Moreover, the “effect on IgE levels in saliva, in words” value with IgE (treatment for seven days) is on record as “does not contribute in lowering IgE levels”. For the same molecule, the “NGF levels in saliva” value in the series with NGF (Day 1) turned out to be 2700; with NGF (Day 2) it was 8100; in the series on NGF (Day 3) it was 5400; with NGF (Day 4), 5400; in the series on NGF (Day 5) it was 2700; with NGF (Day 6), 2700. Further, in the series with NGF (Day 7), the “NGF levels in saliva” value was 5400. The “effect on NGF levels in saliva, in words” value in the series on NGF (treatment for seven days) is “perhaps increases NGF levels”. For the same molecule, the “Insulin levels in saliva” value was 1200 in the series with Insulin (Day 1); 800 in the series with Insulin (Day 2); 800 with Insulin (Day 3); 900 in the series with Insulin (Day 4); 750 with Insulin (Day 5); 800 with Insulin (Day 6). For the same molecule, the “Insulin levels in saliva” value in the series with Insulin (Day 7) came out at 900. Moreover, the “effect on Insulin levels in saliva, in words” value in the series with Insulin (treatment for seven days) was “contributes m lowering Insulin levels”. Further, the “Myoglobin levels in saliva” value in the series with Myoglobin (Day 1) was 1800; in the series with Myoglobin (Day 2), 3600; in the series with Myoglobin (Day 3), 3600; in the series on Myoglobin (Day 4), 2700; with Myoglobin (Day 5), 2700; with Myoglobin (Day 6), 2700. In addition, the “Myoglobin levels in saliva” value in the series with Myoglobin (Day 7) is on record as 3500. The “myoglobin level at completion point (FIG. 1)” value in the series on Myoglobin (end of seven days, times the normal level) is “increased the level of myoglobin”. In the series on Myoglobin (treatment for seven days), the “effect on myoglobin levels in saliva, in words” value was “contributes in increasing myoglobin levels”.
For LKAMDPTPPL [LT-10], the side effects result in series [2] is recorded as “no observable side effects”.
